Test system: plants
Assay: Test D pre-emergence, other plants of Tables D1 and D3
Type: in vivo
Conditions: pre-emergence, 100=total damage, 0=no damage
Description: A formulation containing 50 g/L of the test chemical was prepared by dissolving the active ingredient in a mixture of organic solvents and emulsifier, details of which are provided in the table. This formulation was then mixed with a small, variable amount of acetone to aid dissolution, before addition of a 0.2% v/v aqueous solution of an adjuvant, as the aqueous diluent, to form an aqueous spray solution which contains a predetermined concentration of the active ingredient.
This aqueous spray solution was then sprayed onto plants including maize and wheat that had been seed treated with a herbicide safener, after one day's cultivation (for pre-emergence) or after about 12 days' cultivation (for post-emergence). The plants were grown from seeds sown in standard soil, placed in a glasshouse under controlled conditions (at 24/18° C. or 20/16° C., day/night; 16 h light; 65% humidity). After spray application the plants were then grown in a glasshouse under the same conditions and watered twice daily. After 15 d for post-emergence and 20 DAA for pre-emergence the test was evaluated (100=total damage to plant; 0=no damage to plant).

## CN1CC(c2cc(C(F)(F)F)n(C)n2)C(C(=O)Nc2cccc(F)c2C(F)(F)F)C1=O (racemic) [Compound 19]
Rate 15, 20 DAA
  damage to plant, ALOMY: 0
  damage to plant, AVEFA: 0
  damage to plant, BEAVA: 0
  damage to plant, BROTE: 0
  damage to plant, BRSNN: 0
  damage to plant, CHEAL: 0
  damage to plant, GALAP: 0
  damage to plant, HORVW: 0
  damage to plant, KCHSC: 0
  damage to plant, LOLPE: 0
  damage to plant, POAAN: 0
  damage to plant, POLCO: 0
  damage to plant, SINAR: 0
  damage to plant, STEME: 0
  damage to plant, VERPE: 0
Rate 30, 20 DAA
  damage to plant, ALOMY: 0
  damage to plant, AVEFA: 0
  damage to plant, BEAVA: 0
  damage to plant, BROTE: 0
  damage to plant, BRSNN: 0
  damage to plant, CHEAL: 0
  damage to plant, GALAP: 0
  damage to plant, HORVW: 0
  damage to plant, KCHSC: 0
  damage to plant, LOLPE: 0
  damage to plant, POAAN: 0
  damage to plant, POLCO: 0
  damage to plant, SINAR: 0
  damage to plant, STEME: 0
  damage to plant, VERPE: 0
Rate 60, 20 DAA
  damage to plant, ALOMY: 0
  damage to plant, AVEFA: 0
  damage to plant, BEAVA: 0
  damage to plant, BROTE: 0
  damage to plant, BRSNN: 0
  damage to plant, CHEAL: 0
  damage to plant, GALAP: 0
  damage to plant, HORVW: 0
  damage to plant, KCHSC: 0
  damage to plant, LOLPE: 0
  damage to plant, POAAN: 10
  damage to plant, POLCO: 0
  damage to plant, SINAR: 0
  damage to plant, STEME: 0
  damage to plant, VERPE: 0
Rate 130, 20 DAA
  damage to plant, ALOMY: 0
  damage to plant, AVEFA: 0
  damage to plant, BEAVA: 0
  damage to plant, BROTE: 0
  damage to plant, BRSNN: 0
  damage to plant, CHEAL: 0
  damage to plant, GALAP: 0
  damage to plant, HORVW: 0
  damage to plant, KCHSC: 0
  damage to plant, LOLPE: 0
  damage to plant, POAAN: 20
  damage to plant, POLCO: 0
  damage to plant, SINAR: 0
  damage to plant, STEME: 0
  damage to plant, VERPE: 0
Rate 250, 20 DAA
  damage to plant, ALOMY: 20
  damage to plant, AVEFA: 10
  damage to plant, BEAVA: 0
  damage to plant, BROTE: 10
  damage to plant, BRSNN: 0
  damage to plant, CHEAL: 10
  damage to plant, GALAP: 0
  damage to plant, HORVW: 0
  damage to plant, KCHSC: 0
  damage to plant, LOLPE: 30
  damage to plant, POAAN: 80
  damage to plant, POLCO: 0
  damage to plant, SINAR: 0
  damage to plant, STEME: 10
  damage to plant, VERPE: 60
Rate 500, 20 DAA
  damage to plant, ALOMY: 70
  damage to plant, AVEFA: 70
  damage to plant, BEAVA: 0
  damage to plant, BROTE: 30
  damage to plant, BRSNN: 20
  damage to plant, CHEAL: 20
  damage to plant, GALAP: 0
  damage to plant, HORVW: 20
  damage to plant, KCHSC: 0
  damage to plant, LOLPE: 80
  damage to plant, POAAN: 80
  damage to plant, POLCO: 10
  damage to plant, SINAR: 0
  damage to plant, STEME: 60
  damage to plant, VERPE: 70

— patent publication US20220281848A1, “PYRAZOLE-SUBSTITUTED PYRROLIDINONES AS HERBICIDES” (FMC Corporation, priority 2019, published 2022)
